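Interpolation was linear, between the two tested concentrations surrounding the appropriate level; five concentrations were tested over 48 hours in 96-well plates. At the GI50, growth is halved.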 Activity calls are given as the source filed them. Cut-off read from the data, not from the text of the source: active = GI50 up to about 1.1 µM and inactive = higher.
Experiments:
Assay in all cases: NCI-60 cell line screen, 48 h
[1] = system: HCT-116
[2] = system: NCI-H226
[3] = system: SN12C
[4] = system: OVCAR-4
[5] = system: MOLT-4
[6] = system: K562
[7] = system: ACHN
[8] = system: HCC 2998
[9] = system: UO-31
[10] = system: SNB-75
[11] = system: SF-539
[12] = system: SK-MEL-28
[13] = system: HOP-92
[14] = system: SK-MEL-2
[15] = system: CAKI-1
[16] = system: RXF 393
[17] = system: HL-60
[18] = system: SF-295
[19] = system: SK-MEL-5

Measured: GI50

CCCCCC(/C=C/c1ncccc1OCCCCCC(=O)O)=N\NC1=NCCN1
inactive: [1] 43.4 µM | [2] > 100 µM | [3] 94.4 µM | [4] 78.7 µM | [5] 62.7 µM | [6] 60.3 µM | [7] > 100 µM | [8] > 100 µM | [9] > 100 µM | [10] 40.2 µM | [11] 76 µM | [12] > 100 µM | [13] 91 µM | [14] 48.9 µM | [15] > 100 µM | [16] > 100 µM | [17] 57.8 µM | [18] > 100 µM

Clc1ccccc1C(n1ncc2ccccc21)n1ncc2ccccc21
inactive: [1] 25.6 µM | [2] 33.7 µM | [3] 65.2 µM | [4] 51.6 µM | [5] 18.9 µM | [6] 28.4 µM | [7] 56.5 µM | [8] 31.5 µM | [9] 31.3 µM | [19] 30.4 µM | [10] 17 µM | [11] 56.9 µM | [12] 53.2 µM | [13] 24.3 µM | [14] 33.3 µM | [15] 30.6 µM | [16] 28.3 µM | [17] 18.6 µM | [18] 64.6 µM

COC(=O)C1=C(C)N2CCOC2CC1c1ccccc1 (configuration not stated)
inactive: [1] > 100 µM | [2] > 100 µM | [4] > 100 µM | [5] 77.4 µM | [6] 70.5 µM | [7] > 100 µM | [8] > 100 µM | [9] > 100 µM | [19] > 100 µM | [10] > 100 µM | [11] > 100 µM | [12] 99.1 µM | [13] 44.7 µM | [14] > 100 µM | [15] > 100 µM | [16] 48.6 µM | [17] 53.5 µM | [18] > 100 µM

CCOC(=O)C1S/C(=N\c2ccc(Cl)cc2Cl)N=C1C (configuration not stated)
inactive: [1] 65.6 µM | [2] > 100 µM | [3] > 100 µM | [4] 20.8 µM | [6] > 100 µM | [7] 95.1 µM | [8] > 100 µM | [9] > 100 µM | [19] 48.6 µM | [10] 26.1 µM | [11] 53 µM | [12] > 100 µM | [13] 20.6 µM | [14] 61.5 µM | [15] 66.2 µM | [16] 27.5 µM | [17] 68.4 µM | [18] 32.1 µM

COC(=O)c1sc(=O)n(-c2ccccc2)c1SCc1ccccc1
inactive: [1] > 100 µM | [2] > 100 µM | [3] > 100 µM | [4] > 100 µM | [5] > 100 µM | [6] > 100 µM | [7] > 100 µM | [8] > 100 µM | [9] > 100 µM | [19] > 100 µM | [10] > 100 µM | [11] > 100 µM | [12] > 100 µM | [13] 30.1 µM | [14] > 100 µM | [16] > 100 µM | [17] > 100 µM | [18] > 100 µM

NC1C(O)C(O)C(CO)OC1n1cc(F)c(=O)[nH]c1=O (configuration not stated)
inactive: [1] > 100 µM | [2] > 100 µM | [3] > 100 µM | [4] > 100 µM | [5] > 100 µM | [7] > 100 µM | [8] > 100 µM | [19] > 100 µM | [10] 91.2 µM | [12] > 100 µM | [13] > 100 µM | [14] > 100 µM | [15] > 100 µM | [16] > 100 µM | [17] > 100 µM | [18] > 100 µM

Reference: ChEMBL document CHEMBL1201862, “PubChem BioAssay data set” (2004)
